Measurements from patent US20230130831A1, “METHODS FOR DETECTING AND TREATING JOINT DISEASE” (Washington University, priority 2021, published 2023).
Each block holds one molecule with its values, some of them ahead of it. Where a SMILES comes first, the peptide text is derived from it. Bridges are numbered along the chain shown (N, C = ends). [ ]: non-standard residue; d: D form. The star is where a group is joined. X1 = CC1(C)C(/C=C/C=C/C=C/C=C2/N(CCC(=O)*)c3ccc4ccccc4c3C2(C)C)=[N+](CCC(=O)[O-])c2ccc3ccccc3c21

Experiments:
[1] = test system: K/BxN (F1) mice with spontaneous arthritis; assay: Whole-body near-infrared fluorescence imaging in K/BxN spontaneous arthritis mice
Procedure: The K/BxN mice with spontaneous arthritis (F1) were maintained in the laboratory. To establish serum transfer arthritis (STA), male 6-8 weeks old C57BL/6J mice were injected intraperitoneally with 150-175 μL of serum derived from F1 mice (8-9 weeks old). Day 0 denoted induction of serum transfer/disease. Clinical manifestation of arthritis in each paw was assessed daily on a scale of 0-3 with 0=no swelling or erythema, 1=slight swelling or erythema, 2=moderate erythema and swelling in multiple digits or entire paw, and 3=pronounced erythema and swelling of an entire paw, with a maximum score of 12 per mouse. The ankle thickness of two hind paws was measured using calipers. Animals were monitored for distress during arthritis induction, including their ability to move around the cage and access food/water.
In the K/BxN (F1) mice with spontaneous arthritis, inflammation occurs progressively in the paws, ankle, and knee joints leading to measurable local erythema and swelling. F1 mice with severe arthritis (9-10 weeks old) were injected intravenously with LS301 and imaged 18 h post-injection for near-infrared fluorescence using the Pearl Small Animal Imaging System.
Arthritic or control (non-diseased) mice were injected intravenously with 6 nmol LS301. […] Images shown represented at least two independent experiments and were taken at 18 h post-injection with mice in dorsal orientation.
Mice were injected intravenously with 6 nmol LS301. […] Images shown were taken at 18 h post-injection with mice in dorsal orientation. (A) Early stage RA (3-4 week old K/Bxn mice). (B) Intermediate stage RA ([…] K/Bxn mice). (C) Late-stage RA (9-10 week old K/Bxn mice). (D) Normal (control) C57BL/6J mice. (E) K/Bxn mice (3-4 weeks old) were injected with cypate dye (control) instead of LS301.
K/BxN mice (9-10 wk. old) were injected intravenously with 6 nmol LS301.

[2] = test system: Raw 264.7 macrophage cells; assay: In-vitro anti-inflammatory effect: LPS-induced cytokines by cytokine bead array; assay type: cell-based; details: combined with near-infrared (780 nm) laser irradiation
Procedure: MTX alone and controls. Raw 264.7 macrophage cells were treated with methotrexate (MTX), LS301-MTX, LS301 alone, or LS301 combined with near-infrared (780 nm) laser irradiation. Levels of inflammation-associated (LPS-induced) cytokines, including IL-6 and IL-10, were measured by cytokine bead array.

pANXA2 = pANXA2 (Homo sapiens, UniProt P07355); details: previously found; cited from earlier work
[3] = test system: C57BL/6J mice with serum transfer arthritis; details: mouse, in vivo
Procedure: Animals were shaved. Excess hair was removed using commercially available hair removal cream. Mice were anesthetized with isoflurane for injection and imaging procedures. LS301 stock (or LS301-methotrexate or LS301-methylprednisolone derivative stock) in dimethyl sulfoxide solution was diluted in phosphate-buffered saline to a final concentration of 60 μM and injected via tail vein into mice. In-vivo near-infrared fluorescence using 785 nm excitation and 820 nm emission filters was assessed pre-injection, post-injection, and/or at indicated time points post-injection with a Pearl Small Animal Imaging System (LICOR Biotechnology, Lincoln, Nebr.). Regions of interest (ROIs) for fluorescence quantitation were drawn and analyzed using the Pearl Small Animal Imaging System software.
C57BL/6J mice with serum arthritis (days 5-6 post serum transfer) (left) or control C57BL/6J mice (right) were injected intravenously with 6 nmol LS301. […] Near-infrared fluorescence images were taken on the Pearl animal imaging system with λ=820 nm. […] ROIs were drawn around each organ/limb of interest and quantitated using the Pearl animal imaging system software.
C57BL/6 mice with induced arthritis (K/Bxn serum transfer, days 5-6 post serum transfer) were injected subcutaneously (flank) with 6 nmol LS301. […] Near-infrared fluorescence images were taken on Pearl Imaging System with λ=800 nm.

[4] = test system: C57BL/6 mice with induced arthritis (K/BxN serum transfer); assay: Serum transfer arthritis: clinical paw scores and ankle thickness after treatment; assay type: in vivo, mouse
Procedure: To establish serum transfer arthritis (STA), male 6-8 weeks old C57BL/6J mice were injected intraperitoneally with 150-175 μL of serum derived from F1 mice (8-9 weeks old). Day 0 denoted induction of serum transfer/disease. Clinical manifestation of arthritis in each paw was assessed daily on a scale of 0-3 with 0=no swelling or erythema, 1=slight swelling or erythema, 2=moderate erythema and swelling in multiple digits or entire paw, and 3=pronounced erythema and swelling of an entire paw, with a maximum score of 12 per mouse. The ankle thickness of two hind paws was measured using calipers. Animals were monitored for distress during arthritis induction, including their ability to move around the cage and access food/water. Experiments were blinded, where the technician responsible for clinical assessment of paw score and ankle measurements was blinded to treatment groups. […] Clinical paw scores and ankle measurements were obtained daily. […] Mice received intraperitoneal DEX (10 mg/kg/dose) daily over 6 days. Clinical paw scores and ankle measurements were obtained daily. […] C57BL/6 mice with induced arthritis (K/Bxn serum transfer) were imaged with 6 nmol intravenous LS301 at day 4 post-disease induction. […] Individual limbs of the mice were scored for paw edema and measured for ankle thickness by calipers.

Sequence of pANXA2 (P07355 whole entry): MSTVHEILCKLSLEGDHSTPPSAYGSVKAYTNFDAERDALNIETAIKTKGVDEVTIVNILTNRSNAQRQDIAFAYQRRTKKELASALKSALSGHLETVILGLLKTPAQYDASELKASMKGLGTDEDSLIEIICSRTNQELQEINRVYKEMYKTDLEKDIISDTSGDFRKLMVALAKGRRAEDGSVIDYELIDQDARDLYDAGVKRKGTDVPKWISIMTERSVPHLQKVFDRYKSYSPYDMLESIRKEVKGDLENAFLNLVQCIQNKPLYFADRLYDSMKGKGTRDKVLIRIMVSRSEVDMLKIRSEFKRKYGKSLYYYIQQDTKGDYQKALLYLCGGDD

accumulation in extremities / regions of arthritic joint disease ([1]; K/BxN F1 arthritic mice, i.v., 18 h): No accumulation was found in extremities
Structure (SMILES): CC1(C)C(/C=C/C=C/C=C/C=C2/N(CCC(=O)O)c3ccc4ccccc4c3C2(C)C)=[N+](CCC(=O)[O-])c2ccc3ccccc3c21 [cypate, reference compound]

Structure (SMILES): CC1(C)C(/C=C/C=C/C=C/C=C2/N(CCC(=O)N[C@@H]3CSSC[C@@H](C(=O)N[C@@H](CCCCN)C(=O)O)NC(=O)[C@@H]4CCCN4C(=O)[C@H](CO)NC(=O)[C@H](CC(=O)O)NC(=O)[C@H](CCCNC(=N)N)NC(=O)CNC3=O)c3ccc4ccccc4c3C2(C)C)=[N+](CCC(=O)[O-])c2ccc3ccccc3c21 [LS301, cypate-cyclic (DCys-Gly-Arg-Asp-Ser-Pro-Cys)-Lys-OH] (X1-[dC]GRDSPCK-OH; disulfide 1-7)
inflammatory state of macrophages (LPS-induced cytokines incl. IL-6, IL-10) [2]: suppress the inflammatory state of macrophages | clearance from the body ([1]; mouse, in vivo, iv): 2.5 days | time point of contrast post-injection ([1]; mouse, in vivo, iv): ~18 h | affinity for pANXA2 (pANXA2): high affinity | kidney signal, arthritic mice vs controls [3]: possible nonsignificant trend toward increased kidney signal in arthritic mice when compared to controls | effect on disease progression ([4]; imaging dose (6 nmol), LS301 alone): did not significantly affect disease progression

Structure (SMILES): CN(Cc1cnc2nc(N)nc(N)c2n1)c1ccc(C(=O)N[C@@H](CCC(=O)O)C(=O)O)cc1 [methotrexate, reference compound]
clinical scores ([4]; three doses i.p. 2 mg/kg/dose over seven days, day 23 post-treatment initiation): clinical scores of mice had significantly decreased
